Measured values: patent publication US10731159B2, “Cationic lipid” (DAIICHI SANKYO COMPANY, LIMITED, priority 2013, dated 2020)

Columns and labels:
[1] = Average particle size of nucleic acid lipid particle (NICOMP 380ZLS); format: physicochemical
Description: The particle size of the liposome was measured using Zeta Potential/Particle Sizer NICOMP™ 380ZLS (Particle Sizing Systems, LLC). In the tables, the average particle size is indicated by a volume-average particle size, and the numeric value following ±represents a deviation.

[2] = Rate of encapsulation of polynucleotide/mRNA (Quant-iT RiboGreen, with and without Triton X-100); format: physicochemical
Description: The rate of encapsulation of the double-stranded polynucleotide was measured using Quant-iT RiboGreen RNA Assay kit (Invitrogen Corp.) according to the attached document.
(§1) Specifically, the double-stranded polynucleotide in the nucleic acid lipid particle dispersion was quantified in the presence and absence of a 0.015% Triton X-100 detergent, and the rate of encapsulation was calculated according to the following expression: {[Amount of the double-stranded polynucleotide in the presence of the detergent]−[Amount of the double-stranded polynucleotide in the absence of the detergent]}/[Amount of the double-stranded polynucleotide in the presence of the detergent]}×100(%) (3) Ratio of Double-Stranded Polynucleotide to Lipid
The rate of encapsulation of the mRNA was measured using Quant-iT RiboGreen RNA Assay kit (Invitrogen Corp.) according to the attached document.
as §1, with “mRNA” for “double-stranded polynucleotide”, “mRNA” for “Double-Stranded Polynucleotide”

[3] = Ratio of polynucleotide/mRNA to lipid (wt/wt); format: physicochemical
Description: The nucleic acid lipid particle dispersion was mixed with acetonitrile and chloroform at a ratio of 1:1:1 and centrifuged at 15,000 rpm for 2 minutes. Then, the aqueous layer obtained as an upper layer was recovered, followed by the extraction of the double-stranded polynucleotide. The amount of the double-stranded polynucleotide in the sample was measured by ion-exchange chromatography (system: Agilent 1100 series, column: TSKgel DEAE-2SW (2.6×150 mm) (Tosoh Corp), buffer A: 20% acetonitrile, buffer B: 20% acetonitrile and 1.6 M ammonium formate, gradient (B %): 30-55% (0-20 min), flow rate: 1 mL/min, temperature: 40° C., detection: 260 nm).
The amount of the phospholipid in the nucleic acid lipid particle dispersion was measured using Phospholipid C-Test Wako (Wako Pure Chemical Industries Ltd.) according to the attached document. Specifically, the phospholipid in the sample was quantified in the presence of a 1% Triton X-100 detergent.
(§2) The amounts of cholesterol and LP in the nucleic acid lipid particle dispersion were measured by reverse-phase chromatography (system: Agilent 1100 series, column: Chromolith Performance RP-18 endcapped 100-3 monolithic HPLC-column (Merck), buffer A: 0.01% trifluoroacetic acid, buffer B: 0.01% trifluoroacetic acid and methanol, gradient (B %): 87-92% (0-10 min), flow rate: 2 mL/min, temperature: 50° C., detection: 205 nm).
(§3) The total amount of lipids was calculated from the amount of the phospholipid and the compositional ratio of lipid components constituting the liposome, and the ratio of the polynucleotide to the lipid was calculated from the aforementioned amount of the polynucleotide and the total amount of lipids according to the following expression: [Double-stranded polynucleotide concentration]/[Total lipid concentration] (wt/wt)
as §3, with “phospholipid, the amount of cholesterol, and the amount of LP,” for “phospholipid”
The amount of the double-stranded polynucleotide in a sample from the nucleic acid lipid particle dispersion was measured in the presence of a 5% Triton X-100 detergent by ion-exchange chromatography (system: Agilent 1100 series, column: DNAPac PA200 (4×250 mm) (Thermo Fisher Scientific K.K.), buffer A: 10 mM Tris, 25 mM sodium perchlorate, and 20% ethanol, pH 7.0, buffer B: 10 mM Tris, 250 mM sodium perchlorate, and 20% ethanol, pH 7.0, gradient (B %): 20-70% (0-15 min), flow rate: 0.5 mL/min, temperature: 40° C., detection: 260 nm).
as §2, with “82-92%” for “87-92%”
The total amount of lipids was calculated from the amount of the phospholipid, the amount of cholesterol, and the amount of LP, and the compositional ratio of lipid components constituting the liposome, and the ratio of the mRNA to the lipid was calculated from the “amount of the mRNA in the presence of the detergent” of the preceding paragraph (2) according to the following expression: [mRNA concentration in the presence of the detergent]/[Total lipid concentration] (wt/wt)

[4] = test system: human β-catenin gene; test: Test Example 2: β-catenin gene expression inhibition in HepG2 cells, 3 days, real-time PCR; format: cell-based; conditions: for inhibitory activity against β-catenin gene expression (in words): compared with particle containing lipid of Reference Example 2; for IC50: nucleic acid lipid particle of Example 31 containing the named lipid, read-out: β-catenin gene expression inhibitory activity IC50
Description: (§4) As described below, the strength of human β-catenin gene expression inhibitory activity was compared among nucleic acid lipid particles each prepared using a novel lipid.
The concentration of a human liver cancer HepG2 cell line (derived from human liver cancer) was adjusted to 50000 cells/mL in a DMEM medium (manufactured by Invitrogen Corp.) containing 10% fetal bovine serum (culture medium). Then, the resulting culture solution was inoculated at 100 μL/well to a 96-well flat-bottomed plate (manufactured by Corning Inc./Falcon) and cultured at 37° C. for 1 day under 5.0% CO2. The nucleic acid lipid particle-containing dispersion prepared in Example 31 was diluted with a culture medium to prepare dilution series having final double-stranded polynucleotide concentrations of 30, 3, 0.3, and 0.03 nM in the medium. Then, each dilution was added to the cells after removal of the culture supernatant, and the culture was further continued for 3 days. This operation was performed at N=3 for each concentration.
(§5) A lysate and cDNA for real-time PCR measurement were prepared from the transfected cells using TaqMan® Fast-Cells-to-Ct kit (Life Technologies, Inc./Ambion) according to the instruction manual. In the lysate preparation, Lysis Solution supplemented with DNase I was used. The probes for real-time PCR used were TaqMan® Gene Expression Assays (CTNNB1, FAM probe) (Hs00355045_m1, manufactured by Applied Biosystems, Inc.) for the human β-catenin gene and a human GAPDH gene probe as an internal standard (VIC probe, Hs99999905_m1, manufactured by Applied Biosystems, Inc.). 5 μL of TaqMan® Fast Advanced Master Mix, 2 μL of RNase-Free Water, 0.5 μL of each gene probe, and 2 μL of the prepared cDNA solution were added per well of a 384-well PCR plate (manufactured by Applied Biosystems, Inc.) to bring the total amount to 10 μL, which was then loaded in ViiA™ 7 Real-time PCR system (manufactured by Applied Biosystems, Inc.) and subjected to PCR under conditions given below. The real-time PCR was carried out at N=4 for the cDNA prepared from the lysate.
(§6) PCR initial activation: 95° C. for 20 seconds
(§7) PCR: 95° C. for 1 second • 62° C. for 20 seconds
(§8) This PCR cycle was repetitively performed 40 times.
(§9) The quantitative analysis was conducted by the ΔΔCt method.

[5] = test system: human β-catenin gene; test: Test Example 1: β-catenin gene expression inhibition in SW480 cells, 3 days, real-time PCR; format: cell-based; conditions: for inhibitory activity against β-catenin gene expression (in words): compared with particle containing lipid of Reference Example 2; for IC50: nucleic acid lipid particle of Example 31 containing the named lipid, double-stranded polynucleotide concentration, read-out: β-catenin gene expression inhibitory activity IC50
Description: as §4
(§10) The concentration of a human colorectal cancer SW480 cell line (derived from human colorectal adenocarcinoma) was adjusted to 50,000 cells/mL in an RPMI1640 medium (manufactured by Invitrogen Corp.) containing 10% fetal bovine serum (culture medium). Then, the resulting culture solution was inoculated at 100 μL/well to a 96-well flat-bottomed plate (manufactured by Corning Inc./Falcon) and cultured at 37° C. for 1 day under 5.0% CO2. The nucleic acid lipid particle dispersion prepared in Example 31 was diluted with a culture medium to prepare dilution series having final double-stranded polynucleotide concentrations of 30, 3.0, 0.3, and 0.03 nM in the medium. Then, each dilution was added to the cells after removal of the culture supernatant, and the culture was further continued for 3 days. This operation was performed at N=3 for each concentration.
as §5, §6, §7, §8, §9

[6] = test system: human β-catenin gene; test: Test Example 8: β-catenin gene expression inhibition in SW480 cells, procedures of Test Example 3, 50-0.05 nM; format: cell-based; conditions: for inhibitory activity against β-catenin gene expression (in words): compared with particle containing lipid of Reference Example 2; for IC50: procedures of Test Example 3, 50, 5, 0.5, 0.05 nM, particles of Example 55, read-out: β-catenin gene expression inhibitory activity IC50
Description: as §10, with “to 50000” for “to 50,000”, “in a” for “in an”, “lipid particle-containing” for “lipid particle”, “30, 3,” for “30, 3.0,”, “for 4 hours.” for “for 3 days.”
as §5, §9
By the same procedures as in Test Example 3, SW480 cells were treated with 50 nM, 5 nM, 0.5 nM, and 0.05 nM each of nucleic acid lipid particles each prepared using a novel lipid, and the strength of human β-catenin gene expression inhibitory activity was compared among these particles.

[7] = particles of Example 31, volume-average particle size ± deviation
[8] = particles of Example 31: DSPC:Chol:LP:PEG-C-DMA=20:48:30:2, CT-157/CT-169 double-stranded polynucleotide
[9] = particles of Example 31, total lipids calculated from phospholipid amount and compositional ratio (Table 3)
[10] = Example 55: particles prepared as in Example 31, ± deviation
[11] = Example 55: particles prepared as in Example 31 (β-catenin double-stranded polynucleotide)
[12] = Example 55: particles prepared as in Example 31

SMILES	Average particle size [1, 10] [nm]	Rate of polynucleotide encapsulation [2, 11] [%]	Ratio of polynucleotide to lipid siRNA/lipid [3, 12] [wt/wt]	IC50 [6] [nM]	Average particle size [1, 7] [nm]	Rate of polynucleotide encapsulation [2, 8] [%]	Ratio of polynucleotide to lipid siRNA/lipid [3, 9] [wt/wt]	inhibitory activity against β-catenin gene expression (in words) [4]	IC50 [4] [nM]	inhibitory activity against β-catenin gene expression (in words) [5]	IC50 [5] [nM]	inhibitory activity against β-catenin gene expression (in words) [6]
CCCCC/C=C\C/C=C\CCCCCCCCC(CCCCCCCC/C=C\C/C=C\CCCCC)OC(=O)OCCCN(C)C [Example 1, 3-(Dimethylamino)propyl(6Z,9Z,28Z,31Z)-heptatriaconta-6,9,28,31-tetraen-19-yl Carbonate]					183 ± 41	94.3	0.109	strong inhibitory activity	0.38	strong inhibitory activity	3.5	
CCCCC/C=C\C/C=C\CCCCCCCC(CCCCCCC/C=C\C/C=C\CCCCC)OC(=O)OCCCN(C)C [Example 2, 3-(Dimethylamino)propyl(6Z,9Z,26Z,29Z)-pentatriaconta-6,9,26,29-tetraen-18-yl Carbonate]					215 ± 70	96.3	0.099	strong inhibitory activity	0.47	strong inhibitory activity	6.8	
CCCCC/C=C\C/C=C\CCCCCCCC(CCCCCCC/C=C\C/C=C\CCCCC)OC(=O)OCCCCN(C)C [Example 3, 4-(Dimethylamino)butyl(6Z,9Z,26Z,29Z)-pentatriaconta-6,9,26,29-tetraen-18-yl Carbonate]					187 ± 31	98.6	0.099	strong inhibitory activity	0.35	strong inhibitory activity	0.44	

More lines, main results first:

Average particle size [1, 10] [nm]	Rate of polynucleotide encapsulation [2, 11] [%]	Ratio of polynucleotide to lipid siRNA/lipid [3, 12] [wt/wt]	IC50 [6] [nM]	SMILES	Average particle size [1, 7] [nm]	Rate of polynucleotide encapsulation [2, 8] [%]	Ratio of polynucleotide to lipid siRNA/lipid [3, 9] [wt/wt]	inhibitory activity against β-catenin gene expression (in words) [4]	IC50 [4] [nM]	inhibitory activity against β-catenin gene expression (in words) [5]	IC50 [5] [nM]	inhibitory activity against β-catenin gene expression (in words) [6]
158 ± 40	97	0.101	2.6	CCCCCC[C@H](C/C=C\CCCCCCCC(CCCCCCC/C=C\C[C@@H](CCCCCC)OC(=O)CC)OC(=O)OCCCN(C)C)OC(=O)CC [Example 41, (7R,9Z,26Z,29R)-18-({[3-(Dimethylamino)propoxy]carbonyl}oxy)pentatriaconta-9,26-diene-7,29-diyl Dipropionate]								strong inhibitory activity
188 ± 45	97	0.077	6	CCCCCC[C@H](C/C=C\CCCCCCCCC(CCCCCCCC/C=C\C[C@@H](CCCCCC)OC(C)=O)OC(=O)OCCCN(C)C)OC(C)=O [Example 42, (7R,9Z,28Z,31R)-19-({[3-(Dimethylamino)propoxy]carbonyl}oxy)heptatriaconta-9,28-diene-7,31-diyl Diacetate]								strong inhibitory activity
174 ± 31	97	0.075	24	CCCCCCCCCCCCC(CCCCCCC/C=C\C[C@@H](CCCCCC)OC(C)=O)OC(=O)OCCCN(C)C (stereo partly drawn) [Example 43, (7R,9Z)-18-({[3-(Dimethylamino)propoxy]carbonyl}oxy)triacont-9-en-7-yl Acetate]								strong inhibitory activity
